Experimental data from patent US11078194B2, “Salt form and crystal form serving as FGFR and VEGFR inhibitor compounds, and preparation method therefor” (HARBIN ZHENBAO PHARMACEUTICAL CO., LTD., priority 2017, dated 2021).

What was measured:
[1] = Solid stability test of crystal form G, crystal form I and crystal form J (HPLC content, total impurities, XRPD, appearance); type: physicochemical; conditions: for thermal stability and stability under accelerated conditions: conclusion of influencing factors and accelerated tests
Description: About 10 mg of crystal form G, crystal form I, or crystal form J were weighed accurately, and placed on the bottom of a 40 mL glass sample bottle and spread into a thin layer. For an open sample, the bottle mouth thereof was sealed with aluminum foil poked with pinholes to ensure that the sample can fully contact with the ambient air. For a sealed sample, the bottle mouth thereof was sealed with a bottle cap, and wrapped with a sealing film. Two duplicate samples were weighed at each time point of each condition in parallel, and an appropriate amount of sample (not weighed) was taken additionally for XRPD detection. The prepared samples were placed under each condition and were sampled and analyzed when the time point was arrived. On 0th day, 5 control samples were weighed in parallel and stored in a refrigerator at −20° C. until analysis. The samples subjected to light irradiation were prepared by the same method, and placed on the bottom of a 40 mL glass sample bottle. The glass bottle was left open and placed in the upright position in a light irradiation box. In addition, two samples in an appropriate amount were taken as samples in dark, and the glass bottles containing the same were left open, put in the upright position, and wrapped with tin foil, and irradiated with a total luminance of 1.2×10^6Lux.hr and a near ultraviolet power of 200 w.hr/m^2. After irradiation, the samples was stored in the refrigerator at −20° C. for analysis.
The compounds were placed under the following conditions and sampled at different time points to detect the physical properties, and the content and total impurities were analyzed by HPLC.

[2] = Hygroscopicity test by dynamic vapor sorption (DVS); type: physicochemical; conditions: 25±1° C. and 80±2% RH; for hygroscopicity evaluation: scales in the 11th table
Description: Instrument model: SMS DVS Advantage dynamic vapor sorption analyzer Detection conditions: samples (10 mg to 15 mg) were placed in a DVS sample tray for detection. The detailed DVS parameters are as follows: Temperature: 25° C. Balance: dm/dt=0.01%/min (shortest: 10 min, longest: 180 min) Drying: 120 minutes at 0% RH RH (%) gradient for testing: 10% RH (%) range for gradient testing: 0%-90%-0% The hygroscopicity was evaluated using the following scales: [table] 10 to 15 mg of the crystal form I of the compound of formula (III) was taken and placed in a DVS sample tray for testing. 10 to 15 mg of the crystal form J of the compound of formula (IV) was taken and placed in a DVS sample tray for testing.

[3] = Accelerated test (40° C./relative humidity 75%, open), 1st month
[4] = Accelerated test (40° C./relative humidity 75%, open), 2nd month
[5] = Accelerated test (40° C./relative humidity 75%, open), 3rd month
[6] = Accelerated test (40° C./relative humidity 75%, open), 10th day
[7] = Accelerated test (60° C./relative humidity 75%, open), 1st month
[8] = Accelerated test (60° C./relative humidity 75%, open), 2nd month
[9] = Accelerated test (60° C./relative humidity 75%, open), 3rd month
[10] = Accelerated test (60° C./relative humidity 75%, open), 10th day
[11] = High humidity (Room temperature/relative humidity 92.5%, open), 5th day
[12] = High humidity (Room temperature/relative humidity 92.5%, open), 10th day
[13] = High temperature (60° C., open), 5th day
[14] = High temperature (60° C., open), 10th day
[15] = Light irradiation (1.2 × 10^6 Lux·hr, near ultraviolet 200 w·hr/m^2, open), irradiated sample
[16] = Light irradiation test, Dark sample
[17] = Accelerated test (40 C./relative humidity 75%, open), 1st month
[18] = Accelerated test (40 C./relative humidity 75%, open), 2nd month
[19] = Accelerated test (40 C./relative humidity 75%, open), 3rd month
[20] = Accelerated test (40 C./relative humidity 75%, open), 10th day
[21] = Accelerated test (60 C./relative humidity 75%, open), 1st month
[22] = Accelerated test (60 C./relative humidity 75%, open), 2nd month
[23] = Accelerated test (60 C./relative humidity 75%, open), 3rd month
[24] = Accelerated test (60 C./relative humidity 75%, open), 10th day
[25] = Light irradiation (total illuminance 1.2 × 10^6 Lux·hr/near ultraviolet 200 w·hr/m^2, open), light irradiation sample

C[C@@H](Oc1ccc2[nH]nc(/C=C(\F)c3ccc(CNC4CCOCC4)nc3)c2c1)c1c(Cl)cncc1Cl.O=C(O)CC(O)(CC(=O)O)C(=O)O [crystal form I]
Appearance ([1]; 0th day): Earth yellow
Content (%) ([1]; 0th day): 100.00%
Crystal form (XRPD) ([1]; 0th day): form I
Total impurities (%) ([1]; 0th day): 1.91%
Appearance [1, 3]: Earth yellow
Content (%) [1, 3]: 99.83%
Crystal form (XRPD) [1, 3]: form I
Total impurities (%) [1, 3]: 1.88%
Appearance [1, 4]: Earth yellow
Content (%) [1, 4]: 100.06%
Crystal form (XRPD) [1, 4]: form I
Total impurities (%) [1, 4]: 1.82%
Appearance [1, 5]: Earth yellow
Content (%) [1, 5]: 99.32%
Crystal form (XRPD) [1, 5]: form I
Total impurities (%) [1, 5]: 1.86%
Appearance [1, 6]: Earth yellow
Content (%) [1, 6]: 99.93%
Crystal form (XRPD) [1, 6]: form I
Total impurities (%) [1, 6]: 1.85%
Appearance [1, 7]: Earth yellow
Content (%) [1, 7]: 99.95%
Crystal form (XRPD) [1, 7]: form I
Total impurities (%) [1, 7]: 1.74%
Appearance [1, 8]: Earth yellow
Content (%) [1, 8]: 98.46%
Crystal form (XRPD) [1, 8]: form I
Total impurities (%) [1, 8]: 1.79%
Appearance [1, 9]: Earth yellow
Content (%) [1, 9]: 97.31%
Crystal form (XRPD) [1, 9]: form I
Total impurities (%) [1, 9]: 1.83%
Appearance [1, 10]: Earth yellow
Content (%) [1, 10]: 100.19%
Crystal form (XRPD) [1, 10]: form I
Total impurities (%) [1, 10]: 1.85%
Appearance [1, 11]: Earth yellow
Content (%) [1, 11]: 99.10%
Crystal form (XRPD) [1, 11]: form I
Total impurities (%) [1, 11]: 1.88%
Appearance [1, 12]: Earth yellow
Content (%) [1, 12]: 99.92%
Crystal form (XRPD) [1, 12]: form I
Total impurities (%) [1, 12]: 1.73%
Appearance [1, 13]: Earth yellow
Content (%) [1, 13]: 100.40%
Crystal form (XRPD) [1, 13]: form I
Total impurities (%) [1, 13]: 1.93%
Appearance [1, 14]: Earth yellow
Content (%) [1, 14]: 100.26%
Crystal form (XRPD) [1, 14]: form I
Total impurities (%) [1, 14]: 1.83%
Appearance [1, 15]: Earth yellow
Content (%) [1, 15]: 97.37%
Crystal form (XRPD) [1, 15]: form I
Total impurities (%) [1, 15]: 2.35%
Appearance [1, 16]: Earth yellow
Content (%) [1, 16]: 99.42%
Crystal form (XRPD) [1, 16]: form I
Total impurities (%) [1, 16]: 1.85%
thermal stability and stability under accelerated conditions [1]: excellent
stability under dark conditions [1]: good stability
impurities generated under light irradiation conditions [1]: slight impurities
hygroscopic weight gain ΔW [2]: 2.134%
hygroscopicity evaluation [2]: hygroscopic

C[C@@H](Oc1ccc2[nH]nc(/C=C(\F)c3ccc(CNC4CCOCC4)nc3)c2c1)c1c(Cl)cncc1Cl.O=C(O)C[C@H](O)C(=O)O [crystal form J]
Appearance ([1]; 0th day, control): Earth yellow
Crystal form (XRPD) ([1]; 0th day, control): form J
Content (%) ([1]; 0th day, control, HPLC): 100.00%
Total impurities (%) ([1]; 0th day, control, HPLC): 1.42%
Appearance [1, 17]: Earth yellow
Content (%) [1, 17]: 99.31%
Crystal form (XRPD) [1, 17]: form J
Total impurities (%) [1, 17]: 1.36%
Appearance [1, 18]: Earth yellow
Content (%) [1, 18]: 99.40%
Crystal form (XRPD) [1, 18]: form J
Total impurities (%) [1, 18]: 1.20%
Appearance [1, 19]: Earth yellow
Content (%) [1, 19]: 98.62%
Crystal form (XRPD) [1, 19]: form J
Total impurities (%) [1, 19]: 1.20%
Appearance [1, 20]: Earth yellow
Content (%) [1, 20]: 99.44%
Crystal form (XRPD) [1, 20]: form J
Total impurities (%) [1, 20]: 1.33%
Appearance [1, 21]: Earth yellow
Content (%) [1, 21]: 97.07%
Crystal form (XRPD) [1, 21]: form J
Total impurities (%) [1, 21]: 1.43%
Appearance [1, 22]: Earth yellow
Content (%) [1, 22]: 97.22%
Crystal form (XRPD) [1, 22]: form J
Total impurities (%) [1, 22]: 1.48%
Appearance [1, 23]: Earth yellow
Content (%) [1, 23]: 97.18%
Crystal form (XRPD) [1, 23]: form J
Total impurities (%) [1, 23]: 1.53%
Appearance [1, 24]: Earth yellow
Content (%) [1, 24]: 99.05%
Crystal form (XRPD) [1, 24]: form J
Total impurities (%) [1, 24]: 1.36%
Appearance [1, 11]: Earth yellow
Content (%) [1, 11]: 99.06%
Crystal form (XRPD) [1, 11]: form J
Total impurities (%) [1, 11]: 1.31%
Appearance [1, 12]: Earth yellow
Content (%) [1, 12]: 100.58%
Crystal form (XRPD) [1, 12]: form J
Total impurities (%) [1, 12]: 1.32%
Appearance [1, 13]: Earth yellow
Content (%) [1, 13]: 98.83%
Crystal form (XRPD) [1, 13]: form J
Total impurities (%) [1, 13]: 1.39%
Appearance [1, 14]: Earth yellow
Content (%) [1, 14]: 99.11%
Crystal form (XRPD) [1, 14]: form J
Total impurities (%) [1, 14]: 1.46%
Appearance [1, 25]: Earth yellow
Content (%) [1, 25]: 96.41%
Crystal form (XRPD) [1, 25]: form J
Total impurities (%) [1, 25]: 1.90%
Appearance [1, 16]: Earth yellow
Content (%) [1, 16]: 98.04%
Crystal form (XRPD) [1, 16]: form J
Total impurities (%) [1, 16]: 1.30%
thermal stability and stability under accelerated conditions [1]: excellent
stability under dark conditions [1]: good stability
impurities generated under light irradiation conditions [1]: slight impurities
hygroscopic weight gain ΔW [2]: 5.227%
hygroscopicity evaluation [2]: hygroscopic
